Legend:
Experiment in all cases: KinomeScan
Assay type in all cases: binding
Conditions in all cases: read-out: % Ctrl @ 10000 nM
SYK = target: T1, SYK (Homo sapiens, UniProt P43405)
T1 construct: host or cells: T7 phage grown in E. coli (BL21-derived)
Method: (§1) Kinase assays: Assays were performed as described in Fabian et al. (2005) Nature Biotechnology, vol. 23, p. 329. Kinase-tagged T7 phage strains were grown in parallel in 24 or 96-well blocks in an E. coli host derived from the BL21 strain. E. coli were grown to log-phase and infected with T7 phage from a frozen stock (multiplicity of infection ˜0.1) and incubated with shaking at 32° C. until lysis (−90 minutes). The lysates were centrifuged and filtered to remove cell debris. […] The liganded beads were blocked with excess biotin and washed with blocking buffer (SeaBlock (Pierce), 1% BSA, 0.05% Tween 20, 1 mM DTT) to remove unbound ligand and to reduce non-specific phage binding.
(§2) Test compounds were prepared as 40× stocks in DMSO and diluted into the aqueous environment. 2.5% DMSO was added to control assays lacking a test compound. All reactions were performed in polystyrene 96-well plates that had been pretreated with blocking buffer in a final volume of 0.04 ml. […] The phage titer in the eluates was measured by quantitative PCR.

LCK = target: T2, LCK (Homo sapiens, UniProt P06239)
T2 construct: host or cells: T7 phage grown in E. coli host derived from BL21
Method: as §1, §2

p38-alpha = target: T3, p38-alpha (Homo sapiens, UniProt Q16539)
T3 construct: host or cells: E. coli host derived from BL21, infected with T7 phage
Method: as §1, §2

MEK3 = target: T4, MEK3 (Homo sapiens, UniProt P46734)
T4 construct: host or cells: E. coli host derived from the BL21 strain, infected with T7 phage
Method: as §1, §2

NEK7 = target: T5, NEK7 (Homo sapiens, UniProt Q8TDX7)
T5 construct: host or cells: T7 phage grown in E. coli host derived from BL21
Method: as §1, §2

AMPK-alpha1 = target: T6, AMPK-alpha1 (Homo sapiens, UniProt Q13131)
T6 construct: host or cells: E. coli (BL21-derived), T7 phage lysate
Method: as §1, §2

SIK = target: T7, SIK (Homo sapiens, UniProt P57059)
T7 construct: host or cells: T7 phage grown in E. coli (BL21-derived)
Method: as §1, §2

CDK9 = target: T8, CDK9 (Homo sapiens, UniProt P50750)
T8 construct: host or cells: T7 phage in E. coli host derived from BL21
Method: as §1, §2

RET(V804L) = target: T9, RET(V804L) (Homo sapiens, UniProt P07949, V804L)
T9 construct: host or cells: E. coli host derived from BL21, T7 phage display
Method: as §1, §2

DCAMKL2 = target: T10, DCAMKL2 (Homo sapiens, UniProt Q8N568)
T10 construct: purchased Ambit Biosciences Corp (KinomeScan); host or cells: T7 phage in E. coli host derived from BL21
Method: as §1, §2

AURKA = target: T11, AURKA (Homo sapiens, UniProt O14965)
T11 construct: host or cells: E. coli host derived from BL21
Method: as §1, §2

RAF1 = target: T12, RAF1 (Homo sapiens, UniProt P04049)
T12 construct: host or cells: E. coli host derived from BL21, T7 phage display
Method: as §1, §2

AAK1 = target: T13, AAK1 (Homo sapiens, UniProt Q2M2I8)
T13 construct: host or cells: E. coli (BL21-derived), T7 phage lysate
Method: as §1, §2

EPHB1 = target: T14, EPHB1 (Homo sapiens, UniProt P54762)
T14 construct: purchased Ambit Biosciences Corp; host or cells: T7 phage in E. coli host derived from BL21
Method: as §1, §2

NEK2 = target: T15, NEK2 (Homo sapiens, UniProt P51955)
T15 construct: host or cells: T7 phage grown in E. coli host derived from BL21
Method: as §1, §2

PIM3 = target: T16, PIM3 (Homo sapiens, UniProt Q86V86)
T16 construct: host or cells: T7 phage in E. coli host derived from BL21
Method: as §1, §2

MAPKAPK2 = target: T17, MAPKAPK2 (Homo sapiens, UniProt P49137)
T17 construct: host or cells: E. coli host derived from the BL21 strain, infected with T7 phage
Method: as §1, §2

PAK2 = target: T18, PAK2 (Homo sapiens, UniProt Q13177)
T18 construct: host or cells: E. coli host derived from BL21, infected with T7 phage
Method: as §1, §2

TYRO3 = target: T19, TYRO3 (Homo sapiens, UniProt Q06418)
T19 construct: host or cells: E. coli host derived from BL21, T7 phage
Method: as §1, §2

RIPK1 = target: T20, RIPK1 (Homo sapiens, UniProt Q13546)
T20 construct: host or cells: E. coli host derived from BL21, T7 phage display
Method: as §1, §2

TIE2 = target: T21, TIE2 (Homo sapiens, UniProt Q02763)
T21 construct: host or cells: E. coli host derived from BL21, T7 phage
Method: as §1, §2

PHKG2 = target: T22, PHKG2 (Homo sapiens, UniProt P15735)
T22 construct: host or cells: E. coli host derived from BL21, infected with T7 phage
Method: as §1, §2

ROCK2 = target: T23, ROCK2 (Homo sapiens, UniProt O75116)
T23 construct: host or cells: E. coli host derived from BL21, T7 phage display
Method: as §1, §2

ULK2 = target: T24, ULK2 (Homo sapiens, UniProt Q8IYT8)
T24 construct: host or cells: E. coli host derived from BL21, T7 phage
Method: as §1, §2

DCAMKL3 = target: T25, DCAMKL3 (Homo sapiens, UniProt Q9C098)
T25 construct: purchased Ambit Biosciences Corp (KinomeScan); host or cells: T7 phage in E. coli host derived from BL21
Method: as §1, §2

MST3 = target: T26, MST3 (Homo sapiens, UniProt Q9Y6E0)
T26 construct: host or cells: T7 phage grown in E. coli host derived from BL21
Method: as §1, §2

MRCKB = target: T27, MRCKB (Homo sapiens, UniProt Q9Y5S2)
T27 construct: host or cells: T7 phage grown in E. coli host derived from BL21
Method: as §1, §2

BRAF = target: T28, BRAF (Homo sapiens, UniProt P15056)
T28 construct: host or cells: E. coli host derived from BL21
Method: as §1, §2

CSK = target: T29, CSK (Homo sapiens, UniProt P41240)
T29 construct: host or cells: T7 phage in E. coli host derived from BL21
Method: as §1, §2

SRPK2 = target: T30, SRPK2 (Homo sapiens, UniProt P78362)
T30 construct: host or cells: T7 phage grown in E. coli (BL21-derived)
Method: as §1, §2

SNARK = target: T31, SNARK (Homo sapiens, UniProt Q9H093)
T31 construct: host or cells: T7 phage grown in E. coli (BL21-derived)
Method: as §1, §2

CDKL2 = target: T32, CDKL2 (Homo sapiens, UniProt Q92772)
T32 construct: host or cells: T7 phage in E. coli host derived from BL21
Method: as §1, §2

ADCK4 = target: T33, ADCK4 (Homo sapiens, UniProt Q96D53)
T33 construct: host or cells: E. coli (BL21-derived), T7 phage lysate
Method: as §1, §2

PAK4 = target: T34, PAK4 (Homo sapiens, UniProt O96013)
T34 construct: host or cells: E. coli host derived from BL21, infected with T7 phage
Method: as §1, §2

TTK = target: T35, TTK (Homo sapiens, UniProt P33981)
T35 construct: host or cells: E. coli host derived from BL21, T7 phage
Method: as §1, §2

T15 sequence (P51955 whole entry): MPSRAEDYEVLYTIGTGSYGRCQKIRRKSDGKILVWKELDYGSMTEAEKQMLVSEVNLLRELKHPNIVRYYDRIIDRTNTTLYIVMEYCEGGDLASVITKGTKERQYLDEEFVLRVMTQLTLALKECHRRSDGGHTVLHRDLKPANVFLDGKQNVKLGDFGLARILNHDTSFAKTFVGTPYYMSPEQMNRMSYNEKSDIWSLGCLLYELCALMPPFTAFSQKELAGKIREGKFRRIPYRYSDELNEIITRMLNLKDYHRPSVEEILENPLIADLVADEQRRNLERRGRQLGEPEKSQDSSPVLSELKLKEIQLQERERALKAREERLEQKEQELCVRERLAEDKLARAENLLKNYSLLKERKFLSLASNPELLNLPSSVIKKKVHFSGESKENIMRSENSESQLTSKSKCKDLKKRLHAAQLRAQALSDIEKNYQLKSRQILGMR
T4 sequence (P46734 whole entry): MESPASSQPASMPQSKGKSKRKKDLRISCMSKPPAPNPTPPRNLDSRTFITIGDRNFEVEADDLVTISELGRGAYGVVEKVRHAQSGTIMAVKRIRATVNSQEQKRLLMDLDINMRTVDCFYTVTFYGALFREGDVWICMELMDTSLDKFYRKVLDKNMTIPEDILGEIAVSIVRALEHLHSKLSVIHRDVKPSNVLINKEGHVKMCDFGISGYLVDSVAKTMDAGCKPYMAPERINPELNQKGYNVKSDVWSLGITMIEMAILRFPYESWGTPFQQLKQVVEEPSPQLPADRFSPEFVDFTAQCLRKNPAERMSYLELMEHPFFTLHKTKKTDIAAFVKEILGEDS
T30 sequence (P78362 whole entry): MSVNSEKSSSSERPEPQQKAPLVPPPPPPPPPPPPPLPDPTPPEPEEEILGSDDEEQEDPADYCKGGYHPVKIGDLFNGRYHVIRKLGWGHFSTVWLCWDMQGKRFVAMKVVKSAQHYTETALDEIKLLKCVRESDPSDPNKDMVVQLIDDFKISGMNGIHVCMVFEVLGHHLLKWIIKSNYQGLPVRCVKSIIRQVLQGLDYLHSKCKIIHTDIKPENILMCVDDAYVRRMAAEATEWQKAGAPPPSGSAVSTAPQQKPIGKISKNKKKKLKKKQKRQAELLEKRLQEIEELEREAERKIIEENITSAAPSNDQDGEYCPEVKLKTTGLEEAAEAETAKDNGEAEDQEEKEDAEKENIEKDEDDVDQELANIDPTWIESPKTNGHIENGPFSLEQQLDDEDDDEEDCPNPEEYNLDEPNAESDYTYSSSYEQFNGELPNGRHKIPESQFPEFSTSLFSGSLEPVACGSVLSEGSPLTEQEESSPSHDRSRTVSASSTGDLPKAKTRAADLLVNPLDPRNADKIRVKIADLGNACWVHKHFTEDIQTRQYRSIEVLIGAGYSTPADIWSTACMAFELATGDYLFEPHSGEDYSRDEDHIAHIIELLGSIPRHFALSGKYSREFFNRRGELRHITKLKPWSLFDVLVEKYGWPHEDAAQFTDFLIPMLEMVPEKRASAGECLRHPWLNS
T6 sequence (Q13131 whole entry): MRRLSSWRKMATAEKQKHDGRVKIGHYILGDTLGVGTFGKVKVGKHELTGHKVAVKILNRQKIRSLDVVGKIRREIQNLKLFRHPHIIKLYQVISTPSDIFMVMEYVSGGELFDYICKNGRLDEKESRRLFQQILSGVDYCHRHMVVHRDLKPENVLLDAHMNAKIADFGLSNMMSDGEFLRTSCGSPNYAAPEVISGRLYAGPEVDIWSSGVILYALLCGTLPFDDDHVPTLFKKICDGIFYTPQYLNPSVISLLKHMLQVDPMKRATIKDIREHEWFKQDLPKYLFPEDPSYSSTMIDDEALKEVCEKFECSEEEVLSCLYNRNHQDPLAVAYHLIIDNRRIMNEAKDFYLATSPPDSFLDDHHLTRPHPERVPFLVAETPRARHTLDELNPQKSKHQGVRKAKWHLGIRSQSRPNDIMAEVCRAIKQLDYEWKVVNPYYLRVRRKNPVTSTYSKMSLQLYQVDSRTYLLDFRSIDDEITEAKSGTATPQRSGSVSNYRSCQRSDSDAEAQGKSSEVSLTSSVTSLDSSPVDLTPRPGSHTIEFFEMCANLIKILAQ
T14 sequence (P54762 18-984): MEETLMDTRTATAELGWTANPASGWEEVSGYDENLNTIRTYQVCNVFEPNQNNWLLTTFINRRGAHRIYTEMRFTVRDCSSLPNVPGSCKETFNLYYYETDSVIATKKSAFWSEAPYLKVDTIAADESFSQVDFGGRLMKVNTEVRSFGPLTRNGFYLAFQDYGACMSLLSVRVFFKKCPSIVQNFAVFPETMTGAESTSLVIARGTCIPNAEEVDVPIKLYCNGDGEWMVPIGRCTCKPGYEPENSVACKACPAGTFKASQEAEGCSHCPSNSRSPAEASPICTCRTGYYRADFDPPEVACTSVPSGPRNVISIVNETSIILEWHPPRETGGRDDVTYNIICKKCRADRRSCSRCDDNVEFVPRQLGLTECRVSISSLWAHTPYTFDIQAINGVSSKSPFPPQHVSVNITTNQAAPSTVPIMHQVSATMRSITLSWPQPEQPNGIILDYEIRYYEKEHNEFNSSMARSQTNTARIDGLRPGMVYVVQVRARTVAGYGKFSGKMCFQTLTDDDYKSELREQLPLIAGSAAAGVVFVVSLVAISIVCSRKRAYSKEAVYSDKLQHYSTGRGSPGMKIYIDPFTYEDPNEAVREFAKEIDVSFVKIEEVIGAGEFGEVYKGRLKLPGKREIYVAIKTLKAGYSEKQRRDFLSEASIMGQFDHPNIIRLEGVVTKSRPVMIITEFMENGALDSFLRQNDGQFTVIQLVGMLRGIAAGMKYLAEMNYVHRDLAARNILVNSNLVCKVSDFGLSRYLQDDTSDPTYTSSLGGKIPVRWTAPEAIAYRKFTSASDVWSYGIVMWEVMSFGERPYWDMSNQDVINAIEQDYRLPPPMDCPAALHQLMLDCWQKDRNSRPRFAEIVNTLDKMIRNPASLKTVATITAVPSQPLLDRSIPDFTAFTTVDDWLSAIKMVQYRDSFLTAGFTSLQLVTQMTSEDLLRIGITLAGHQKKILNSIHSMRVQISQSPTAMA
T10 sequence (Q8N568 whole entry): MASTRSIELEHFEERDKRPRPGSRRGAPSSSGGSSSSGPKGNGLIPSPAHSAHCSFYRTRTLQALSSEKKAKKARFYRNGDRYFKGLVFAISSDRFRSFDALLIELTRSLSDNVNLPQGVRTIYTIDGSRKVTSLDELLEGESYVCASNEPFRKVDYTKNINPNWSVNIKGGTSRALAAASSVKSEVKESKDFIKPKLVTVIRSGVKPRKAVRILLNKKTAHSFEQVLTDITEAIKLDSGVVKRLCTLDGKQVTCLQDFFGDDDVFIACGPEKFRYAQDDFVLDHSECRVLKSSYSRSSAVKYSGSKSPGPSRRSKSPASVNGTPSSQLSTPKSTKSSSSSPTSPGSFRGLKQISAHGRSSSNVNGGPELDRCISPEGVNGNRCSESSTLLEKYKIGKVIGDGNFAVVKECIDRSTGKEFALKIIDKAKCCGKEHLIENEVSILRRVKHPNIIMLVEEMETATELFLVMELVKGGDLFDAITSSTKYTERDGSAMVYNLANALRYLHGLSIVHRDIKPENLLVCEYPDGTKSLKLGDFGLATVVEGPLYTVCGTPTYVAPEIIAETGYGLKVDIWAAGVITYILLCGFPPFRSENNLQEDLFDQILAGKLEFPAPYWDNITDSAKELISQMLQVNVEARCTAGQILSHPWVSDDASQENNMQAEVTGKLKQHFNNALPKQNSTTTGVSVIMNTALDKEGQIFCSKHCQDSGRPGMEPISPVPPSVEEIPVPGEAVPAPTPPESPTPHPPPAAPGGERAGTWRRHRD
T17 sequence (P49137 whole entry): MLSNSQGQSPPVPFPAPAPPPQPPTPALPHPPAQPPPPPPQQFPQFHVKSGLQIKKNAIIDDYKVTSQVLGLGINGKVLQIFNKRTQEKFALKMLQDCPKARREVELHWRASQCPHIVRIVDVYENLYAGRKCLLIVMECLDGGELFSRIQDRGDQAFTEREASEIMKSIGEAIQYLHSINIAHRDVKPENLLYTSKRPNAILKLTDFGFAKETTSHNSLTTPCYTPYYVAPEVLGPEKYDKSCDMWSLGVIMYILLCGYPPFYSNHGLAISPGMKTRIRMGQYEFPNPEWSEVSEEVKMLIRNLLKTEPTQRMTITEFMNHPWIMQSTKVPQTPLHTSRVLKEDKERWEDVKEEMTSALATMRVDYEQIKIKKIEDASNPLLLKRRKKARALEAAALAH
T33 sequence (Q96D53 whole entry): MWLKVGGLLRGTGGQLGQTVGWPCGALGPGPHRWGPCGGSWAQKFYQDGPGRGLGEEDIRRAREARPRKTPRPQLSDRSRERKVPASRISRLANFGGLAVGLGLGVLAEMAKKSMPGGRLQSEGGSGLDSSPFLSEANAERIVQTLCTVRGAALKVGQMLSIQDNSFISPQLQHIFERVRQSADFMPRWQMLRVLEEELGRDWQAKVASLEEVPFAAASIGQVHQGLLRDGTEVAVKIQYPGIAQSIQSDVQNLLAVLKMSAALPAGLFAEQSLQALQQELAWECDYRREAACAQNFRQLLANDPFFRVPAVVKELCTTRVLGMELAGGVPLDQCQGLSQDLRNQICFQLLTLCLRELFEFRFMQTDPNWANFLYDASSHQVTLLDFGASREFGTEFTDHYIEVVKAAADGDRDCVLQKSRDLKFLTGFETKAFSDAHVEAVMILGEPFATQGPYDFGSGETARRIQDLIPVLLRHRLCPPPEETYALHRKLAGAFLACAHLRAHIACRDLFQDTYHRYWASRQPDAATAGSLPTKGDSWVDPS
T5 sequence (Q8TDX7 whole entry): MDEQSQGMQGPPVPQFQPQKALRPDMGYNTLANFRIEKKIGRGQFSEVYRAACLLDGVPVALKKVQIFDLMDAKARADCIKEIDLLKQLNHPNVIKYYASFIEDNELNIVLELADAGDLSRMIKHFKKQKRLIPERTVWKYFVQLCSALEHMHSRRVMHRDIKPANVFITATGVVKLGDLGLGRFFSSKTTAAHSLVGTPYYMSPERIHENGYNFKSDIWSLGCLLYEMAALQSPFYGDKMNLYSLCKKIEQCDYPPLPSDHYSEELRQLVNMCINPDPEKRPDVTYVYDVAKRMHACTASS

## C#Cc1cccc(Nc2ncnc3cc(OC)c(OCCCN4CCOCC4)cc23)c1 [NRC-2694, N-(3-ethynylphenyl)-7-methoxy-6-[3-(4-morpholinyl)propoxy]-4-quinazolinamine]
SYK
  remaining binding at 10 µM: 56%
LCK
  remaining binding at 10 µM: 1.5%
p38-alpha
  remaining binding at 10 µM: 89%
MEK3
  remaining binding at 10 µM: 100%
NEK7
  remaining binding at 10 µM: 78%
AMPK-alpha1
  remaining binding at 10 µM: 50%
SIK
  remaining binding at 10 µM: 53%
CDK9
  remaining binding at 10 µM: 86%
RET(V804L)
  remaining binding at 10 µM: 81%
DCAMKL2
  remaining binding at 10 µM: 69%
AURKA
  remaining binding at 10 µM: 100%
RAF1
  remaining binding at 10 µM: 100%
AAK1
  remaining binding at 10 µM: 38%
EPHB1
  remaining binding at 10 µM: 72%
NEK2
  remaining binding at 10 µM: 63%
PIM3
  remaining binding at 10 µM: 23%
MAPKAPK2
  remaining binding at 10 µM: 90%
PAK2
  remaining binding at 10 µM: 67%
TYRO3
  remaining binding at 10 µM: 42%
RIPK1
  remaining binding at 10 µM: 100%
TIE2
  remaining binding at 10 µM: 76%
PHKG2
  remaining binding at 10 µM: 59%
ROCK2
  remaining binding at 10 µM: 38%
ULK2
  remaining binding at 10 µM: 39%
DCAMKL3
  remaining binding at 10 µM: 14%
MST3
  remaining binding at 10 µM: 42%
MRCKB
  remaining binding at 10 µM: 71%
BRAF
  remaining binding at 10 µM: 81%
CSK
  remaining binding at 10 µM: 53%
SRPK2
  remaining binding at 10 µM: 73%
SNARK
  remaining binding at 10 µM: 19%
CDKL2
  remaining binding at 10 µM: 67%
ADCK4
  remaining binding at 10 µM: 14%
PAK4
  remaining binding at 10 µM: 80%
TTK
  remaining binding at 10 µM: 48%

Source: patent US8921362B2, “6,7-dialkoxy quinazoline derivatives and methods of treating drug resistant and other tumors” (Natco Pharma Limited, priority 2008, dated 2014)
